Data as given in patent US20170143733A1, “COMPOUNDS AND METHODS FOR SKIN REPAIR” (Allergan, Inc., priority 2012, published 2017).

Experiments:
EP2 [1] = target: T1, EP2 (Homo sapiens, UniProt P43116); experiment: EP2 cAMP functional assay; assay type: cell-based
EP2 [2] = target: T1, EP2; experiment: EP2 binding assay (Ki)
incisional wounds = experiment: Incisional skin wound model and assessment; assay type: in vivo, Sprague-Dawley rats; settings: rats, Day 7, topical 0.004% twice daily for 5 days, drug-treated, scale of 0 to 6, higher = severer scar
Source text: Sprague-Dawley rats at 180-200 gram were anesthetized with isoflourane. After shaving, 2-cm long incisions were made on the left and right side of the back, reaching the deep fascia on the back skin of rats under sterile conditions. Incisional wounds were immediately closed with 4.0 sutures, and then topically treated with a vehicle or test drugs at 0.004% twice daily for 5 days. The vehicle used here contains ethanol 30%, propylene glycol 12%, dipropylene glycol 5%, benzyl alcohol 5%, glycerol 3% and normal saline 45%. Wounds were photographed on day 7. All photos were coded and scored by lay people. Evaluation of wound sites was based on scar width, palpability (elevation) of wound areas, and general progress in healing, using a scale of 0 to 6; the severer a scar, the higher the score. Each scar was divided into 4 regions, separated by suture sites; each quarter was scored independently; the mean of the 4 part scores was recorded as the overall scar score of each incision site.

EP4 [3] = target: T2, EP4 (Homo sapiens, UniProt P35408); experiment: EP4 cAMP functional assay; assay type: cell-based
EP4 [4] = target: T2, EP4; experiment: EP4 binding assay (Ki)

T2 sequence (P35408 whole entry): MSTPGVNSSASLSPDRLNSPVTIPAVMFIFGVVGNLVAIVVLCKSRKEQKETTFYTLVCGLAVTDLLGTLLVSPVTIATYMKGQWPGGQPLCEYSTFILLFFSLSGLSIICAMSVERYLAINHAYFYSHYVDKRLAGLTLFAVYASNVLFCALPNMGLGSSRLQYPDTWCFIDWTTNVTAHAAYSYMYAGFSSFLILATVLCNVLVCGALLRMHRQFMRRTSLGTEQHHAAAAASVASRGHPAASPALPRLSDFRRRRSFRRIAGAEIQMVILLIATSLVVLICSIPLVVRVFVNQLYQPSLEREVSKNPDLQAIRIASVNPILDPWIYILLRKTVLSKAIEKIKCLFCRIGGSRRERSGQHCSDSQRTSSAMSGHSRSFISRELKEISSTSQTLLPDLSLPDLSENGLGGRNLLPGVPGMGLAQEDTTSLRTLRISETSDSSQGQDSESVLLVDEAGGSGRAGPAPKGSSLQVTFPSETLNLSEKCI
T1 sequence (P43116 whole entry): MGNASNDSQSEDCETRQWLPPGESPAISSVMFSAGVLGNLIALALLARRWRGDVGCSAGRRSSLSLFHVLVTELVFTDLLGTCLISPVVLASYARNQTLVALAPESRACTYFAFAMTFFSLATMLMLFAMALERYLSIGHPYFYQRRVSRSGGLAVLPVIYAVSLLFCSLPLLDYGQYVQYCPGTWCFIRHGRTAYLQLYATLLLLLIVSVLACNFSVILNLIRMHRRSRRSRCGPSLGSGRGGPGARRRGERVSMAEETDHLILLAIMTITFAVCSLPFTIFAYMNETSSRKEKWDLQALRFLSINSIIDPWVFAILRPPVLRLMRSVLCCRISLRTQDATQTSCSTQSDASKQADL

Which EC50 (EP2 [1]) does the source give for `O=C(O)c1ccc(CCCN2C(=O)CC[C@@H]2CC[C@@H](O)Cc2cccc(C(F)(F)F)c2)s1` [Compound 4] here?
The EC50 was 71 nM.

What about the IC50 (EP2 [2]) of the same compound?
The IC50 was 4650 nM.

And the “Scar Scores” value (incisional wounds)?
Its value is 0.76 ± 0.07.

How did the EC50 (EP2 [1]) turn out when `O=C(O)CCCCCC[C@H]1C(=S)CCC[C@@H]1CCC(O)Cc1ccccc1` (stereo partly drawn) [Compound 1] was run?
Its EC50 is > 10000 nM.

And the IC50 (EP2 [2])?
The IC50 was > 10000 nM.

And the EC50 (EP4 [3])?
Its EC50 is 0.9 nM.

And the IC50 (EP4 [4])?
The IC50 was 81 nM.

How did the EC50 (EP2 [1]) turn out when `O=C(O)c1ccc(CC2Sc3c(Cl)cccc3N(Cc3ccccc3C(F)(F)F)C2=O)cc1` (stereo not drawn) [Compound 5] was run?
The EC50 was 1.9 nM.

And the IC50 (EP2 [2])?
The IC50 was 1 nM.

What about the EC50 (EP4 [3]) of the same compound?
Its EC50 is 4 nM.

What about the IC50 (EP4 [4]) of the same compound?
Its IC50 is 0.3 nM.

What about the “Scar Scores” value (incisional wounds) of the same compound?
Its value is 0.56 ± 0.07.

With `CCCCC[C@H](O)c1ccc(N2C(=O)CC[C@@H]2CCCc2ccc(C(=O)O)s2)cc1` [Compound 3] as the compound, how does the IC50 (EP2 [2]) read?
Its IC50 is 21 nM.

And the EC50 (EP4 [3])?
Its EC50 is > 10000 nM.

Which results are given for `CC1(C)C(=O)[C@H](C/C=C\CCCC(=O)O)[C@@H](/C=C/[C@H](O)CCc2sc3ccccc3c2Cl)[C@@H]1O` [Compound 2]?
EC50 (EP2 [1]): > 10000 nM; EC50 (EP4 [3]): 0.3 nM; IC50 (EP4 [4]): 7 nM; Scar Scores (incisional wounds): 0.60 ± 0.1
